Measured values taken from patent US9517202B2, “Phospholipid depot” (LATITUDE PHARMACEUTICALS INC., priority 2009, dated 2016).

Test: Injectability test: force to extrude from 1 cc syringe through 25 G ½ inch needle at 2 cc/min
Format: physicochemical
Conditions: 25 G ½ inch long needle
Source text: A major disadvantage of the polymer depots is that they require large diameter needles for injection or implantation due to the physical size of the microcapsules/microspheres and/or the high viscosity of the polymer gel. For example, 14- or 16-gauge (G) needles are required for implantation of Zoladex™ and 18 G or 20 G needles for injection of Eligard™. However, in common medical practice, needles of size greater than 21 G are generally not used for injection because they cause significant pain and psychological trauma for patients. […] The injectability or ease with which the end user can self-inject through such a system will be key to such a drug's user compliance and therapeutic efficacy. For discussion purposes herein, the injectability of a syringe-administered depot is quantitatively defined as meeting the “Acceptable Injectability Criterion” if it requires an applied force of no more than 10 pounds to be extruded from a 1 cc syringe through a 25 G ½ inch long needle at rate of 2 cc/min.
The phrase “Acceptable Injectability Criterion” as used herein includes quantitatively defining a formulation that requires an applied force of no more than 10 pounds to extrude the formulation from a 1 cc syringe through a 25 G ½ inch long needle at rate of 2 cc/min. […]
F-43 was a translucent one-phase gel. The injectability of F-43 was determined against the Acceptable Injectability Criterion. […]

maximum injection force: approximately 8 pounds
SMILES: OCC(O)CO [glycerin]
